Experimental data: article PMC7730205, “Different Sensitivity of Control and MICU1- and MICU2-Ablated Trypanosoma cruzi Mitochondrial Calcium Uniporter Complex to Ruthenium-Based Inhibitors” (International Journal of Molecular Sciences, 2020)

Experiments:
[1] = molecular target: T. cruzi mitochondrial Ca2+ uniporter complex, TcMICU1-KO cells (Trypanosoma cruzi, UniProt Q4DHJ5+Q4DL37+Q4DYG3); assay: Ca2+ uptake by digitonin-permeabilized TcMICU1-KO epimastigotes (calcium green-5N); type: cell-based; conditions: ~30 µM Ca2+, 5 mM succinate, initial rate, read-out: IC50, inhibition of mitochondrial Ca2+ uptake
From the text: (§1) We first tested the effect of different concentrations of inhibitors on Ca^2+ uptake, as measured by the change in fluorescence of calcium green 5-N, by digitonin-permeabilized control and TcMICU1-KO and TcMICU2-KO epimastigotes. These KO cells were obtained by the CRISPR/Cas9 method in previous work, and we used cells transfected with a scrambled sgRNA as control.
(§2) Figure 2 Inhibition of mitochondrial Ca^2+ uptake by ruthenium-based compounds. Representative traces of Ca^2+ uptake by digitonin-permeabilized epimastigotes in control (a), TcMICU1-KO (b), and TcMICU2-KO (c) epimastigotes in the presence of different Ru360 concentrations. C, control cells; TcMICU1-KO cells; and TcMICU2-KO cells. The reaction was started after adding 50 μM digitonin (Dig) in the presence of ~30 μM CaCl2, 5 mM succinate, and 0.5 μM calcium green-5N, in the presence or absence of Ru360. Where indicated, 4 μM FCCP was added. (d–f) Dose–response inhibition of the initial rate of mitochondrial Ca^2+ uptake in control (C), TcMICU1-KO (1-KO), and TcMICU2-KO (2-KO) cells treated with RuRed (d), Ru360 (e) or Ru265 (f).
(§3) When dose–response effects were measured in TcMICU1-KO and TcMICU2-KO cells we noticed that these cells were, in general, more sensitive to the inhibitors.
(§4) Cells were collected by centrifugation at 1000× g for 7 min and washed twice with buffer A with glucose (BAG: 116 mM NaCl, 5.4 mM KCl, 0.8 mM MgSO4, 5.5 mM D-glucose, and 50 mM HEPES, pH 7.0). […] Mitochondrial Ca^2+ uptake was initiated by the addition of ~30 μM of free calcium, which was calculated using the software Maxchelator Calculator v1.2 (https://somapp.ucdmc.ucdavis.edu/pharmacology/bers/maxchelator/CaEGTA-NIST.htm). […] Fluorescence changes were monitored in an F-7000 fluorescence spectrophotometer (Hitachi, Dallas, TX, USA) with excitation at 506 nm and emission at 532 nm. […] Kd for Ca^2+ indicator probes in our conditions was determined, according to Chweih et al.. Uptake rate inhibitions were calculated as the first derivative of the absolute values of the slope by using the SLOPE Excel function for 200 points (300 to 500 s). […]

[2] = molecular target: T. cruzi mitochondrial Ca2+ uniporter complex (MCUC), control cells (Trypanosoma cruzi, UniProt Q4DHJ5+Q4DL37+Q4DYG3); assay: Ca2+ uptake by digitonin-permeabilized control epimastigotes (calcium green-5N); type: cell-based; conditions: control (scrambled sgRNA) epimastigotes, ~30 µM Ca2+, 5 mM succinate, initial rate, read-out: IC50, inhibition of mitochondrial Ca2+ uptake
From the text: as §1
As is shown in Figure 2a, extramitochondrial Ca^2+ was sequestered in the mitochondria of control cells and released by the uncoupler FCCP.
as §2, §4

[3] = molecular target: T. cruzi mitochondrial Ca2+ uniporter complex, TcMICU2-KO cells (Trypanosoma cruzi, UniProt Q4DHJ5+Q4DL37+Q4DYG3); assay: Ca2+ uptake by digitonin-permeabilized TcMICU2-KO epimastigotes (calcium green-5N); type: cell-based; conditions: ~30 µM Ca2+, 5 mM succinate, initial rate, read-out: IC50, inhibition of mitochondrial Ca2+ uptake
From the text: as §1, §2, §3, §4

[4] = tested on: T. cruzi epimastigotes (control, TcMICU1-KO, TcMICU2-KO); assay: Mitochondrial membrane potential of digitonin-permeabilized epimastigotes (safranine O); type: cell-based, Trypanosoma cruzi; conditions: TcMICU1-KO or TcMICU2-KO cells, succinate
From the text: To determine whether the defect in mitochondrial Ca^2+ uptake in the presence of inhibitors was not secondary to mitochondrial membrane depolarization, we measured the mitochondrial membrane potential (Δψm) of digitonin-permeabilized epimastigotes using safranine O in the presence of succinate as mitochondrial substrate.
Figure 3 Effect of inhibitors on the mitochondrial membrane potential of epimastigotes. Changes in mitochondrial membrane potential (Δψm) of digitonin-permeabilized epimastigotes as detected by changes in safranine O fluorescence in control (a), TcMICU1-KO (b), and TcMICU2-KO (c) epimastigotes in the absence or presence of inhibitors. Cells (5 × 10^7) were added to the reaction buffer (2 mL) containing 0.2% BSA, 5 mM succinate, 50 μM EGTA and 5 μM safranine O. The reaction was started with 50 μM digitonin (DIG) in the presence or absence of the inhibitor, and 250 μM ADP, 1.5 μM carboxyatractyloside (CAT), 50 μM CaCl2 (Ca^2+), 200 μM EGTA, and 4 μM FCCP were added when indicated. A decrease in fluorescence after permeabilization with digitonin indicated the accumulation of the dye in energized mitochondria. The addition of ADP produced a small dissipation of membrane potential, indicating ADP phosphorylation. Δψm returned to its initial level after the addition of the adenine nucleotide translocator inhibitor CAT. The addition of FCCP collapsed the membrane potential. (d) Changes in safranine O fluorescence after digitonin addition (between 30 and 60 s) in control (C), TcMICU1-KO and TcMICU2-KO epimastigotes. […] Changes in safranine O fluorescence in control (C) (e), TcMICU1-KO (1-KO) (f), and TcMICU2-KO (2-KO) (g) epimastigotes after addition of ADP from three experiments like that shown in panels (a–c).
Estimation of mitochondrial membrane potential in situ was done spectrofluorometrically using the indicator dye safranine O, as described previously. […] Fluorescence changes were monitored using the Hitachi F-7000 spectrofluorometer (excitation of 495 nm and emission of 586 nm).

mammalian mitochondria = conditions: cited from earlier work
T. cruzi trypomastigotes [5] = assay: Trypomastigote attachment assay to glutaraldehyde-fixed Vero cells; type: cell-based, Trypanosoma cruzi; conditions: 30 min preincubation with 1 µM antimycin A; 1 h at 37 °C on fixed Vero cells
Experimental: (§5) We analyzed the growth rate of epimastigotes in LIT medium at different Ru265 concentrations (1 µM, 5 µM, and 10 µM). […] The presence of metabolic inhibitors affects attachment and invasion of T. cruzi trypomastigotes to mammalian cells since these are an active process which depends on the expenditure of parasite energy. Preincubation of trypomastigotes for 30 min with antimycin A, which blocks electron transport from cytochrome b to c1, decreased the ability of trypomastigotes to attach to glutaraldehyde-fixed cells (Figure 4b) and invade intact host cells (Figure 4c).
(§6) Figure 4 Effect of Ru265 on Trypanosoma cruzi. (a) Effect of Ru265 on epimastigote growth. […] After 1 h of incubation at 37 °C, the cells were washed, and the number of attached trypomastigotes was counted. […] After 4 h of incubation at 37 °C, the cells were washed, and the number of intracellular parasites was counted. […] (f) Routine respiration (initial oxygen flux values), leak respiration after the addition of 0.5 µg/mL of oligomycin A, and electron transfer system (ETS) capacity after the sequential additions of FCCP (0.2 μM each) were measured for each condition. […] (g) Representative experiment showing mitochondrial Ca^2+ uptake by intact epimastigotes in relative fluorescence units (RFU). […] (h) Changes in fluorescence (before and after ionomycin addition) from three experiments like that shown in panel (g). […]

T. cruzi trypomastigotes [6] = assay: In vitro infection assay of Vero cells by trypomastigotes; type: cell-based, Trypanosoma cruzi; conditions: 30 min preincubation with 1 µM antimycin A; 4 h on Vero cells
Experimental: as §5, §6

T. cruzi mitochondrial Ca2+ uniporter complex, TcMICU2-KO cells, sequence (Q4DL37 entry or part of it): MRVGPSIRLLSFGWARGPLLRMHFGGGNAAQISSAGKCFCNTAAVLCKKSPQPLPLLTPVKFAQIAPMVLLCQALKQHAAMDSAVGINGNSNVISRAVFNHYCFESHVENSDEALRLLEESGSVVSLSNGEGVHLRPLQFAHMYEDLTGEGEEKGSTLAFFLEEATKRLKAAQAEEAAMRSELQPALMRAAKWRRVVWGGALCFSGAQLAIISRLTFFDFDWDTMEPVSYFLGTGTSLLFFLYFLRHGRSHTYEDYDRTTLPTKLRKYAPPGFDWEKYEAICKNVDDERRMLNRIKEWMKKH
T. cruzi mitochondrial Ca2+ uniporter complex, TcMICU2-KO cells, sequence (Q4DYG3 entry or part of it): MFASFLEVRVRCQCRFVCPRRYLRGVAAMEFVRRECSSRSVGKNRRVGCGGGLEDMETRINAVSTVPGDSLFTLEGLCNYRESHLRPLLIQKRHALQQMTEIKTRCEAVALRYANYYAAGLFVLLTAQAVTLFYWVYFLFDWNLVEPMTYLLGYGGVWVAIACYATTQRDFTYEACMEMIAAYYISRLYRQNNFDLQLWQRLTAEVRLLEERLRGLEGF
T. cruzi mitochondrial Ca2+ uniporter complex, TcMICU2-KO cells, sequence (Q4DHJ5 entry or part of it): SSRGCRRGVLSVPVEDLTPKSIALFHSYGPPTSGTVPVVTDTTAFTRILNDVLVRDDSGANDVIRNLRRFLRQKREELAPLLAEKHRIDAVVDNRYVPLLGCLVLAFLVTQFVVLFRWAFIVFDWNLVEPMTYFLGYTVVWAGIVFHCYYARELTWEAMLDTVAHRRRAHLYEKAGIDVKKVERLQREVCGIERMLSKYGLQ
T. cruzi mitochondrial Ca2+ uniporter complex (MCUC), control cells, sequence (Q4DL37 entry or part of it): as the sequence (Q4DL37 entry or part of it) above
T. cruzi mitochondrial Ca2+ uniporter complex (MCUC), control cells, sequence (Q4DHJ5 entry or part of it): as the sequence (Q4DHJ5 entry or part of it) above
T. cruzi mitochondrial Ca2+ uniporter complex (MCUC), control cells, sequence (Q4DYG3 entry or part of it): as the sequence (Q4DYG3 entry or part of it) above
T. cruzi mitochondrial Ca2+ uniporter complex (MCUC), control cells, sequence (Q4E667 entry or part of it, further chain): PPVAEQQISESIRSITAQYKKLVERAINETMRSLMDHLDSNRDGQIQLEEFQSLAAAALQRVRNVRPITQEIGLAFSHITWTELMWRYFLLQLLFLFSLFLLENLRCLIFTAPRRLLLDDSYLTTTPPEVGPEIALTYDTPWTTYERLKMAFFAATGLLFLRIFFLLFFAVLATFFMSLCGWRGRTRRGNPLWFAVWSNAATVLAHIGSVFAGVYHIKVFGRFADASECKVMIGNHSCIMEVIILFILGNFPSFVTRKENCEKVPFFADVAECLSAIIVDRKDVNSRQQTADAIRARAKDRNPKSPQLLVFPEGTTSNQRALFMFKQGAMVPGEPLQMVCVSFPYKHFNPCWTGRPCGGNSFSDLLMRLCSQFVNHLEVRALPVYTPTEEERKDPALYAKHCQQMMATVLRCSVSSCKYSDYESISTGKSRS
T. cruzi mitochondrial Ca2+ uniporter complex, TcMICU1-KO cells, sequence (Q4DHJ5 entry or part of it): as the sequence (Q4DHJ5 entry or part of it) above
T. cruzi mitochondrial Ca2+ uniporter complex, TcMICU1-KO cells, sequence (Q4DL37 entry or part of it): as the sequence (Q4DL37 entry or part of it) above
T. cruzi mitochondrial Ca2+ uniporter complex, TcMICU1-KO cells, sequence (Q4DYG3 entry or part of it): as the sequence (Q4DYG3 entry or part of it) above

Compound	IC50 [1] [nM]	IC50 [2] [nM]	IC50 [3] [nM]	Effect on mitochondrial membrane potential (Δψm) and response to ADP [4]	Effective concentration range in mammalian mitochondria (mammalian mitochondria)	Ability of trypomastigotes to attach to glutaraldehyde-fixed cells (T. cruzi trypomastigotes [5])	Ability of trypomastigotes to invade intact host cells (T. cruzi trypomastigotes [6])
Ru360	46.7 ± 2.7	186 ± 15.2	63.6 ± 6.9	did not significantly affect			
N.N.N.N.N.N.N.N.N.N.N.N.N.N.[Cl-].[Cl-].[Cl-].[Cl-].[Cl-].[Cl-].[O-2].[O-2].[Ru+3].[Ru+3].[Ru+4] [RuRed, ruthenium red]	148 ± 21.7	117 ± 16.9	11.9 ± 1.4	did not significantly affect	effective in the submicromolar range		
N.N.N.N.N.N.N.N.[Cl][Ru+3].[NH]=[Ru][Cl] [Ru265]	12.1 ± 2.3	26.3 ± 2	14.1 ± 1.3				
CCCCCC[C@H]1C(=O)O[C@H](C)[C@H](NC(=O)c2cccc(NC=O)c2O)C(=O)O[C@@H](C)[C@@H]1OC(=O)CC(C)C [antimycin A]						decreased	decreased
